From patent US7537887B2, “Net, a transcription factor of the TCF family, as regulator of angiogenic factor expression” (Aventis Pharma S.A., priority 2000, dated 2009)

How the values were obtained:
ERK = ERK activation in GPCR-transfected NIH3T3 cells (Western blot, activated ERK antibody); assay type: cell-based; conditions: 10 μM; FIG. 3
Excerpt: FIG. 3: Phosphorylation of endogenous Net.

Net = conditions: inhibitor 10 μM for 30 min; FIG. 3 lanes 3, 4
Method: (§1) NIH3T3 cells were transfected as described above with the control vector for GPCR (pCEFL) or the vector for GPCR (Line 2). 14 hours later, cells were washed and left in the growth medium for 2.5 hours. The cells were then treated with SB 203580 (10 μM) (Alexis Corp.) or U0126 (10 μM) (Promega) for 30 min. After 6 hours, extracts were analysed by SDS-PAGE and Western-blotting with antibodies against phospho-serine 365 Net (antibody 2F3, Ducret et al. (Oncogene, in press) or activated ERK (Promega).
Phosphorylation of endogenous Net was followed with a phospho-specific antibody that recognises phospho-serine 365, which is important for phosphorylation induced activation of Net by ERK and p38 signalling cascades.
as §1, with “(pCEFL-GPCR).” for “(Line 2).”, “[Antibody 2F3 , Giovane” for “(antibody 2F3, Ducret”, “(Genomics (1995) 29:769-72)]” for “(Oncogene, in press)”

NES binding to CRM1 = NES binding to CRM1 (Homo sapiens, UniProt O14980); conditions: cited from earlier work
Chain of NES binding to CRM1 (O14980 whole entry): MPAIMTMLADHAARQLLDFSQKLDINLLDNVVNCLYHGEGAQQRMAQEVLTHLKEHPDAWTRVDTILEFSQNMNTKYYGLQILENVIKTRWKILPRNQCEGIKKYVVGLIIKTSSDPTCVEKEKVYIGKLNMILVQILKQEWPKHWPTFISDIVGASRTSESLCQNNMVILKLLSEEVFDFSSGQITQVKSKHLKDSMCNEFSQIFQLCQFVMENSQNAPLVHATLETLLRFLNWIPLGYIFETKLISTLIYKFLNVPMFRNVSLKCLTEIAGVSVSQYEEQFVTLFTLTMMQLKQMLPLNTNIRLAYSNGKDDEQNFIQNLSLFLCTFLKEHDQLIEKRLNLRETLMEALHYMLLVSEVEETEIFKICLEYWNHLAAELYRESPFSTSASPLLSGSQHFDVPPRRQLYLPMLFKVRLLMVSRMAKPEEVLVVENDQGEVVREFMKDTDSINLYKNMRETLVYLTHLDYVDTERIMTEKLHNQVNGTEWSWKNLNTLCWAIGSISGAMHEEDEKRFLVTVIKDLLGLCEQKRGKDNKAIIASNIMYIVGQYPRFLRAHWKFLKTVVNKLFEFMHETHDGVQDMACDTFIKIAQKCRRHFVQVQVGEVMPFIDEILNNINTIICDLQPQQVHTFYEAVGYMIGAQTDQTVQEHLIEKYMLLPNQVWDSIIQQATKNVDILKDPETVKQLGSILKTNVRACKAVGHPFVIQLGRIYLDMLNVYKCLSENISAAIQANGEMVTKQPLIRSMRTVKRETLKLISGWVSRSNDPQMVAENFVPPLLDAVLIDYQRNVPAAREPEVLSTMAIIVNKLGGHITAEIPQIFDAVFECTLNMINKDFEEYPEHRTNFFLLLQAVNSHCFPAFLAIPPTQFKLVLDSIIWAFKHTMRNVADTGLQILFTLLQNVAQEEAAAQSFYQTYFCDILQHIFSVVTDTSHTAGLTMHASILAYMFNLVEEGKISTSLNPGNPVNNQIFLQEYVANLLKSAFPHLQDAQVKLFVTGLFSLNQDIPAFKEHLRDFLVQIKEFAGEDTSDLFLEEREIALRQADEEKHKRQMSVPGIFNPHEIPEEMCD

HUVEC cells = assay: Microtubule formation by HUVEC cells on Matrigel induced by conditioned media from transfected NIH3T3 cells; assay type: cell-based; conditions: 10 ng/ml recombinant human VEGF added to conditioned medium; FIG. 1d, 1f
Method: FIG. 1: Microtubule formation by HUVEC cells on Matrigel induced by conditioned media from differentially transfected NIH3T3 cells. NIH3T3 cells were transfected by pCEFL-GPCR alone (FIG. 1a); pCEFL-GPCR with p601D-antisense-Net (FIG. 1c) or p601D-transdominant-Net (FIG. e). Before incubation with HUVEC cells, some of the conditioned media were incubated with either: (b) 0.2 μg/ml of anti-mouse-VEGF polyclonal antibody (total goat IgG; R&D SYSTEMS) or with (d and f) 10 ng/ml of recombinant human VEGF-A (R&D). The plates were observed after 24 hours (phase contrast, original magnification, ×40).
a. NIH3T3 cells (C11) were transfected by the calcium phosphate technique with pCEFL-KSHVGPCR (mouse EF12 promoter) and the AntiNet expression vector or the corresponding empty vector (p601D: Beddinton et al.1989,Development 106:37-46). 16 hours after applying the precipitate, the cells were washed twice with DMEM, incubated in DMEM with 0,05% FCS for 48 hours. The medium was collected and either tested immediately or stored at −80° C.
b. HUVEC cells (passage 4-6) were grown in DMEM/F12K containing 10% FCS, Heparine (50 ng/mnl), ECGF(Endothelial Cell Growth Factor, Sigma, 50 ng/ml) and Glutamine (2 mM).
c. The wells of 24-multiwell plates were coated with […] of Growth Factor Reduced MATRIGEL Matrix (Collaborative Biomedical Products) at 4° C. and incubated for 30 min at 37° C.
d. […]

With C[S+]([O-])c1ccc(-c2nc(-c3ccncc3)c(-c3ccc(F)cc3)[nH]2)cc1 (centres unmarked) [SB 203580, 4-[5-(4-fluorophenyl)4-4-(pyridinyl)-1H-imidazol-2-yl]phenyl methyl sulfoxide] the ERK activation (ERK) was “did not inhibit ERK activation” and the “GPCR induced phosphorylation of Net (phospho-serine 365)” value (Net) was “induction was dependent on both the p38 and ERK pathways”.

With N#CC(=C(N)Sc1ccccc1N)C(C#N)=C(N)Sc1ccccc1N [U 0126, 1,4-diamino-2,3-dicyano-1,4 bis[2-aminophenylthio]butadiene] the “GPCR induced phosphorylation of Net (phospho-serine 365)” value (Net) was “induction was dependent on both the p38 and ERK pathways”.

In the case of CCC(=C/[C@H](C)C/C=C/C(C)=C/[C@@H](C)C(=O)[C@@H](C)[C@H](O)[C@@H](C)C/C(C)=C/C(=O)O)/C=C/[C@@H]1OC(=O)C=C[C@@H]1C [leptomycin B], the “active nuclear export of the Net protein induced by the JNK pathway” value (NES binding to CRM1) is listed as “inhibited”.

B1: VEGFa: recombinant human VEGF-A (R&D) (protein)
chain: APTTEGEQKSHEVIKFMDVYQRSYCRPIETLVDIFQEYPDEIEYIFKPSCVPLMRCAGCCNDEALECVPTSESNITMQIMRIKPHQSQHIGEMSFLQHSRCECRPKKDRTKPENHCEPCSERRKHLFVQDPQTCKCSCKNTDSRCKARQLELNERTCRCDKPRR
In the case of B1, the “microtubule inducing activity of conditioned medium from Net down-regulated GPCR cells after adding VEGFa” value (HUVEC cells) is reported as “restored microtubule inducing activity”.
